Source: patent publication US10946109B2, “Polymer-type fluorescent molecule probe” (HIROSHI MAEDA, priority 2011, dated 2021)

Tested on: Human pancreatic cancer cells PC1.0
Assay: cells
Settings: light or radiation study
Description: Human pancreatic cancer cells PC1.0 were plated in 96 well culture plate at 1000 cells/well and cultured overnight. Then, methylene blue (MB) or SMA-methylene blue (SMA-MB) micelle was added to the cultured cells above, and allowed to culture another 48 hours. Light irradiation was carried out using tungsten xenon lamp at 15 cm distance from the cell surface for 20 min. Then, the survival rate of the cells was quantified by MTT Method.

CN(C)c1ccc2nc3ccc(=[N+](C)C)cc-3sc2c1 [Methylene blue, methylene blue]
IC50: 500 nM | IC50 (48 h): 4500 nM
